Source: ChEMBL document CHEMBL3991601, “The target landscape of clinical kinase drugs” (Science, 2017)
The source made the active and inactive calls.

Legend:
[1] = molecular target: T1, Serine/threonine-protein kinase D2 (Homo sapiens, UniProt Q9BZL6)
T1 sequence (Q9BZL6 whole entry): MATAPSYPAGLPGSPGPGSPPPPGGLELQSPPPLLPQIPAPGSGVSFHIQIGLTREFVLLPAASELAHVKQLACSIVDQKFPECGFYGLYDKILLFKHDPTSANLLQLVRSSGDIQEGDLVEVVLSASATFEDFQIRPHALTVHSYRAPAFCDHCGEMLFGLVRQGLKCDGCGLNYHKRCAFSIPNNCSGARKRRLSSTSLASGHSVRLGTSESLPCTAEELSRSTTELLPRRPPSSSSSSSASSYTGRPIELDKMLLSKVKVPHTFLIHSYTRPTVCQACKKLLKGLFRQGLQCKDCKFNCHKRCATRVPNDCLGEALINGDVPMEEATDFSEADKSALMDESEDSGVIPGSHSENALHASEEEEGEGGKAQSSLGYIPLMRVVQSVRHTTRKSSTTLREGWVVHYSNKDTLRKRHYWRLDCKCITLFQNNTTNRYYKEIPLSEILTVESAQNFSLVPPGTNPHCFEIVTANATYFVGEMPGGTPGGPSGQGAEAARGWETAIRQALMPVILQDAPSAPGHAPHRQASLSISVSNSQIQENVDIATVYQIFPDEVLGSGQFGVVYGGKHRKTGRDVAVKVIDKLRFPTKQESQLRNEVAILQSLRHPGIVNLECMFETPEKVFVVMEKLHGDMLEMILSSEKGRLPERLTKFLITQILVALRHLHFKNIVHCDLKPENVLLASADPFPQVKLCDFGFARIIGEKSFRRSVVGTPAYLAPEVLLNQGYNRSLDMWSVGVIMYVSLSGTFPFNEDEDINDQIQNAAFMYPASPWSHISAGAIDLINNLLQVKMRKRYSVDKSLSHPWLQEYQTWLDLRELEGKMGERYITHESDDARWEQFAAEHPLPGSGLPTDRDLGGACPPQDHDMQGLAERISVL

[2] = molecular target: T2, Scaffold protein ILK (Homo sapiens, UniProt Q13418)
T2 sequence (Q13418 whole entry): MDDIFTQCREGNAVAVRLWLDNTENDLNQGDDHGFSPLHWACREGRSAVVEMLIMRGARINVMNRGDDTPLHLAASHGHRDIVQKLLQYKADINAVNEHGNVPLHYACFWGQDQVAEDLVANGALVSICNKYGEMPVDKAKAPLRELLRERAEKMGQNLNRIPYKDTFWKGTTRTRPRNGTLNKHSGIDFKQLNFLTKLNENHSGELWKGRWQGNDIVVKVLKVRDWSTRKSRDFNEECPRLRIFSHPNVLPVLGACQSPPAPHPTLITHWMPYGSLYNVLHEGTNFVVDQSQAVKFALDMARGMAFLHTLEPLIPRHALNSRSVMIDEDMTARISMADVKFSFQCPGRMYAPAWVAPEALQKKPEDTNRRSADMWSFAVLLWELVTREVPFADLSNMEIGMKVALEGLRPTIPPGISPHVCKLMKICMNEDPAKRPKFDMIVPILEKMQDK

[3] = molecular target: Mitogen-activated protein kinase 3 (Homo sapiens, UniProt P27361)
Sequence of Mitogen-activated protein kinase 3 (P27361 whole entry): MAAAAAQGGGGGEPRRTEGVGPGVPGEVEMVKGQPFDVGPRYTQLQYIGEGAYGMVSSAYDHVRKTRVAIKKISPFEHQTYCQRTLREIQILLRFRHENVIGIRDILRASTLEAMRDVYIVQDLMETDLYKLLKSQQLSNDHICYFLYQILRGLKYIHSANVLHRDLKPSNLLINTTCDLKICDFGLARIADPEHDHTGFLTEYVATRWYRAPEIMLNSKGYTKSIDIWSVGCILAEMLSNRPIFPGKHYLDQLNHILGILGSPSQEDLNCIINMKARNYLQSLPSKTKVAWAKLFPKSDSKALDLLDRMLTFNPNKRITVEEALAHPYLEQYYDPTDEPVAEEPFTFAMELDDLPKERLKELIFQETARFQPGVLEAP

[4] = molecular target: Calcium/calmodulin-dependent protein kinase type II subunit gamma (Homo sapiens, UniProt Q13555)
Sequence of Calcium/calmodulin-dependent protein kinase type II subunit gamma (Q13555 whole entry): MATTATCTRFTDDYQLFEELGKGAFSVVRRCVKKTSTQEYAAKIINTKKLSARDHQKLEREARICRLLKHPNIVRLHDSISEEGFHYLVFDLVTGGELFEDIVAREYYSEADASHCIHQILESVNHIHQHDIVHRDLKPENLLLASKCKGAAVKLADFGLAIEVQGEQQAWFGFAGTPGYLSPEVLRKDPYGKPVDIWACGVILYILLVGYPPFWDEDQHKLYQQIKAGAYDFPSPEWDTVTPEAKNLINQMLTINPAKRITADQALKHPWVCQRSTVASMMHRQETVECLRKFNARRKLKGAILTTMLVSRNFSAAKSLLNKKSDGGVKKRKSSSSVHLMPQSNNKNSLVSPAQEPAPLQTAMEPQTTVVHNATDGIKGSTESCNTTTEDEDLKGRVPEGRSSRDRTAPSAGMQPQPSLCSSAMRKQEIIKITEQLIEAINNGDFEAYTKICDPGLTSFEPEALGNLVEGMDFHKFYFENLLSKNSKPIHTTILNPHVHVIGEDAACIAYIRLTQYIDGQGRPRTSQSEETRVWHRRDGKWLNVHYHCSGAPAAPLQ

[5] = molecular target: Protein kinase C delta type (Homo sapiens, UniProt Q05655)
Sequence of Protein kinase C delta type (Q05655 whole entry): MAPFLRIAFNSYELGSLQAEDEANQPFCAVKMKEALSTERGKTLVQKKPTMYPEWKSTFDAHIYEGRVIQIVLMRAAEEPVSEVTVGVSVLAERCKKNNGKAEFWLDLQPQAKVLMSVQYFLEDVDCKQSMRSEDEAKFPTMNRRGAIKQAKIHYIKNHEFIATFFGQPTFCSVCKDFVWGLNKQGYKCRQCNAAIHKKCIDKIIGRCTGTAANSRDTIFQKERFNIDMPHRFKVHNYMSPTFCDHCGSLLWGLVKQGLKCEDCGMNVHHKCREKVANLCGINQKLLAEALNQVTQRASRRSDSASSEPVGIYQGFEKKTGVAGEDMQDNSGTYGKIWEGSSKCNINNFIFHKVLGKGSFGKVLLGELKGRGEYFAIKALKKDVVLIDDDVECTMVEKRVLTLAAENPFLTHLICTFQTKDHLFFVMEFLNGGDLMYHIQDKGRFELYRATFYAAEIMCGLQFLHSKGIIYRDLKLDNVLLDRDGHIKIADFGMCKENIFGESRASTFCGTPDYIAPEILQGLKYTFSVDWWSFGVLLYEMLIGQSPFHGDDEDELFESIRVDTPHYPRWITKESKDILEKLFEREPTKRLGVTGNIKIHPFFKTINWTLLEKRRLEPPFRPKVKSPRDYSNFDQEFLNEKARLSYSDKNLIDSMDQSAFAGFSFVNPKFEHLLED

[6] = molecular target: Serine/threonine-protein kinase/endoribonuclease IRE1 (Homo sapiens, UniProt O75460)
Sequence of Serine/threonine-protein kinase/endoribonuclease IRE1 (O75460 whole entry): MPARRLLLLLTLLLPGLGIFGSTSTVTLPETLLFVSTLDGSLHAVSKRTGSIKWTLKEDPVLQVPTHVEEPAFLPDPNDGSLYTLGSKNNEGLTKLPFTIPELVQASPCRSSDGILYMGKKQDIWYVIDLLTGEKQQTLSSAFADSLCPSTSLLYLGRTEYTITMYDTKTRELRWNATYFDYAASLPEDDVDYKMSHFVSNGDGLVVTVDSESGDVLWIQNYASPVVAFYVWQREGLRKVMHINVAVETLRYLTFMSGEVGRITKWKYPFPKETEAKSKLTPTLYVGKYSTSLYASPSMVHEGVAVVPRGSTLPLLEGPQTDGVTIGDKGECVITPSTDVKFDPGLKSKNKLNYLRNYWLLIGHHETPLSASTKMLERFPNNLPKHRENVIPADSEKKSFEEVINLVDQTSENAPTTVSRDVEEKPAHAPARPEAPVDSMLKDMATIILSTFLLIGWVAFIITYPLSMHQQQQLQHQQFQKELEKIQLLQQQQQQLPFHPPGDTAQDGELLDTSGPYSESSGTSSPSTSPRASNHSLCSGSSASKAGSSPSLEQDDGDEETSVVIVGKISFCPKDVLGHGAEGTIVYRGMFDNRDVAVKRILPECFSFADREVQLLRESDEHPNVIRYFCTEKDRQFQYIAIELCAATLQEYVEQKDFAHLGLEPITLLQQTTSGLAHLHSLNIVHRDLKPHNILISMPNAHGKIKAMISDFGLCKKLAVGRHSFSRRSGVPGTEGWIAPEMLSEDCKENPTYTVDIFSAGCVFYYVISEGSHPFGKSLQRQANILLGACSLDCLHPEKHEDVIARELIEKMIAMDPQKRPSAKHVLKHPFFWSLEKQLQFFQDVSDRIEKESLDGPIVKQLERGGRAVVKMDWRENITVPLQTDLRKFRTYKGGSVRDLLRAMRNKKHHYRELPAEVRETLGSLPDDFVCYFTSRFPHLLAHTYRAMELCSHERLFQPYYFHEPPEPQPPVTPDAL

[7] = molecular target: Ribosomal protein S6 kinase alpha-5 (Homo sapiens, UniProt O75582)
Sequence of Ribosomal protein S6 kinase alpha-5 (O75582 whole entry): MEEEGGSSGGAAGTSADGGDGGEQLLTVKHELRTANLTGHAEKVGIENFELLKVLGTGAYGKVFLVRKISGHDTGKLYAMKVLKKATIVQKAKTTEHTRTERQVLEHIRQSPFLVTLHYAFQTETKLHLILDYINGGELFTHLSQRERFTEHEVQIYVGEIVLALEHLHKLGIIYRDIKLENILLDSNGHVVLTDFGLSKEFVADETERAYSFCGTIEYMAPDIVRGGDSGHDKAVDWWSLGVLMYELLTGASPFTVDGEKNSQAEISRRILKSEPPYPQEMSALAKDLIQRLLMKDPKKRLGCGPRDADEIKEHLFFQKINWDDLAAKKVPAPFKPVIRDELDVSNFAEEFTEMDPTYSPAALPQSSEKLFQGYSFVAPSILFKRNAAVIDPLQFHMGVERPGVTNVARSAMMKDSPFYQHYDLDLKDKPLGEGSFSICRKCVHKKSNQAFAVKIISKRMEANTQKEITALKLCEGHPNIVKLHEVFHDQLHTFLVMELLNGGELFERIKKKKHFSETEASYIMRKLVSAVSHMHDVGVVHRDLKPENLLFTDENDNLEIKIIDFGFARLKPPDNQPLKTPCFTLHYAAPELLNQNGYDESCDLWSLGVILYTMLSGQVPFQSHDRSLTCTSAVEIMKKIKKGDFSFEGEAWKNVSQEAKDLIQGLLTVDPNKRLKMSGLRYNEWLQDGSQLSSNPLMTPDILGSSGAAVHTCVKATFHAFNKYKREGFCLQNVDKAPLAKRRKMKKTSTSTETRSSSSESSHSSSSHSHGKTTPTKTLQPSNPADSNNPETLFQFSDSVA

[8] = molecular target: T3, Membrane-associated tyrosine- and threonine-specific cdc2-inhibitory kinase (Homo sapiens, UniProt Q99640)
T3 sequence (Q99640 whole entry): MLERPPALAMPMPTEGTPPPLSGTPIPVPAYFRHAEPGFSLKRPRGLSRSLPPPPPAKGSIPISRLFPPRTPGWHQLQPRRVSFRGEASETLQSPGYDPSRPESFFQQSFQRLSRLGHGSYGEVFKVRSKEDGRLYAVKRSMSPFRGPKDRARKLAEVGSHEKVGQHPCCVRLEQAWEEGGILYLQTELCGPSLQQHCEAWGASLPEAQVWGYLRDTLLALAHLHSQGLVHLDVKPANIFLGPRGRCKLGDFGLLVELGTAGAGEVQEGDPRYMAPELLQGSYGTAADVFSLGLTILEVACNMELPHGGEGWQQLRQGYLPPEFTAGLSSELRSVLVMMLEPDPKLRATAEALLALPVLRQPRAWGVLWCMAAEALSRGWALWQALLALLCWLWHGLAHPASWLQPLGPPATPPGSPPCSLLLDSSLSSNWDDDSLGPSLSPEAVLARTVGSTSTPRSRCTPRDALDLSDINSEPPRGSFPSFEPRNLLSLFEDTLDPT

[9] = molecular target: T4, Septin-9 (Homo sapiens, UniProt Q9UHD8)
T4 sequence (Q9UHD8 whole entry): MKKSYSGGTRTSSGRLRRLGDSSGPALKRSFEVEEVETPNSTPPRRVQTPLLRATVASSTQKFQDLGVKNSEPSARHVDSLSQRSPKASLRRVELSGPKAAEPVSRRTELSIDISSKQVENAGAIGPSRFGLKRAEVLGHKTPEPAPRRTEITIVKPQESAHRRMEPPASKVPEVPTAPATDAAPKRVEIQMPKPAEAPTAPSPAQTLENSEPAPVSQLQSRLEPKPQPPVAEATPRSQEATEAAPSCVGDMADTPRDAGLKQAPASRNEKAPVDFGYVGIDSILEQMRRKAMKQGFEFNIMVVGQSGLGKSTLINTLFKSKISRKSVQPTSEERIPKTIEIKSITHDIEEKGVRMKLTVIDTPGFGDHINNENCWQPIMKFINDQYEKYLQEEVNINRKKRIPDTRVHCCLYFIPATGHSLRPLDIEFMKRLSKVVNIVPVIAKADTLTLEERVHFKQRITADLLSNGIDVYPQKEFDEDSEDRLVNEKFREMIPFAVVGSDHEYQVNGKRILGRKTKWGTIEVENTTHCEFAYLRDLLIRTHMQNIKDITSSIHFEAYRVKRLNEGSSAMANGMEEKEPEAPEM

[10] = molecular target: Serine/threonine-protein kinase MRCK gamma (Homo sapiens, UniProt Q6DT37)
Sequence of Serine/threonine-protein kinase MRCK gamma (Q6DT37 whole entry): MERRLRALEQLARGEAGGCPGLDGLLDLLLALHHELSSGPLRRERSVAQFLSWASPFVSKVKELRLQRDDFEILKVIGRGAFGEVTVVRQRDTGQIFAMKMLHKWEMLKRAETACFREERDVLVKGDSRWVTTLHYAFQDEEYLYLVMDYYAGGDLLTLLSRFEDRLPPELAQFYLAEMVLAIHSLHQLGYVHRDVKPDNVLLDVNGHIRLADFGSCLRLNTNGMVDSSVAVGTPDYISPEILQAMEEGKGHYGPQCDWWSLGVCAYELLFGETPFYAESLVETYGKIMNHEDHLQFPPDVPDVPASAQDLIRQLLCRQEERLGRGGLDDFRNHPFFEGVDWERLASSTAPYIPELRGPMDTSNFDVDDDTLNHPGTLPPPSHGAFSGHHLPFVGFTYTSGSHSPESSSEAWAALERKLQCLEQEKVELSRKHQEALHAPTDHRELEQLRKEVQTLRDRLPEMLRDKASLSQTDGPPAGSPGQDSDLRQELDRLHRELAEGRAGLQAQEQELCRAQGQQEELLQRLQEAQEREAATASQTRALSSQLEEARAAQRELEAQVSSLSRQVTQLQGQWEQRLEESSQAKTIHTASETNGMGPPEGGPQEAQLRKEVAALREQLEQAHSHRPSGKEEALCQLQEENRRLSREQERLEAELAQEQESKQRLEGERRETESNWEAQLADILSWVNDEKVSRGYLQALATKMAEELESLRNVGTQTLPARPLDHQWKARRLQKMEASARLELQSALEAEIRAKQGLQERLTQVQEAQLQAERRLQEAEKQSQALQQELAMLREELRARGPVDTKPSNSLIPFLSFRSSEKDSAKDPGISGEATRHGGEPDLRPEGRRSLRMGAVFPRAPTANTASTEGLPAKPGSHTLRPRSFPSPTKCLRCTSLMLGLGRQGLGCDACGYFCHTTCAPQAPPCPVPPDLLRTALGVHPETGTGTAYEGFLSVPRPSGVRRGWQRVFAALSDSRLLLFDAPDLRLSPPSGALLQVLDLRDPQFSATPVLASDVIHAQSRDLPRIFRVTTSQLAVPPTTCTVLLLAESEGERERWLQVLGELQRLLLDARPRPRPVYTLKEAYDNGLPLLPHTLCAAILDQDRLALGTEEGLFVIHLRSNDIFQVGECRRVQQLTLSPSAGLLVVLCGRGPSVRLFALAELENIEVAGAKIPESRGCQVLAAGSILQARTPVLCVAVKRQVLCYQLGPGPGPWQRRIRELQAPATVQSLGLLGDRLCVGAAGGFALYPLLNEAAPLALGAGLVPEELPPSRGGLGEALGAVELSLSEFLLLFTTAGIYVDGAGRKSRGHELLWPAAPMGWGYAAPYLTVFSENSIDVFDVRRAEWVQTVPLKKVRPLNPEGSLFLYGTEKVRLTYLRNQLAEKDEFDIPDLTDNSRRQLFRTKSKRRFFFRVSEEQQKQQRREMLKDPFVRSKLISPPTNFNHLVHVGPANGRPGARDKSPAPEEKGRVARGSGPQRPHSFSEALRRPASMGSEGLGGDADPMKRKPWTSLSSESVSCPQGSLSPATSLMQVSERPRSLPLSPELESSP
Also: in the data inactive means no Kd found up to 30 µM.

SMILES	Kd [1]	Kd [2]	Kd [3]	Kd [4]	Kd [5]	Kd [6]	Kd [7]	Kd [8]	Kd [9]	Kd [10]
COc1cccc(Nc2ncnn3ccc(CN4CC[C@@H](N)[C@H](O)C4)c23)c1 [BMS-690514]	0.14 µM (active)	> 30 µM (inactive)	> 30 µM (inactive)	0.738 µM (active)	1.74 µM (active)	> 30 µM (inactive)	> 30 µM (inactive)	1.85 µM (active)	> 30 µM (inactive)	
CN(c1ncccc1CNc1nc(Nc2ccc3c(c2)CC(=O)N3)ncc1C(F)(F)F)S(C)(=O)=O [PF-00562271]		> 30 µM (inactive)	> 30 µM (inactive)			> 30 µM (inactive)		> 30 µM (inactive)	> 30 µM (inactive)	> 30 µM (inactive)
COc1cc2c(Oc3ccc4[nH]c(C)cc4c3F)ncnc2cc1OCCCN1CCCC1 [CEDIRANIB]		> 30 µM (inactive)							> 30 µM (inactive)	
CC[C@@](C)(Nc1ccnc(-c2c[nH]c3ncccc23)n1)C(=O)NCC(F)(F)F [DECERNOTINIB]	> 30 µM (inactive)	> 30 µM (inactive)	> 30 µM (inactive)	14.3 µM	0.067 µM (active)	> 30 µM (inactive)	> 30 µM (inactive)	> 30 µM (inactive)	> 30 µM (inactive)	
N#CCNC(=O)c1ccc(-c2ccnc(Nc3ccc(N4CCOCC4)cc3)n2)cc1 [MOMELOTINIB]	0.531 µM (active)	> 30 µM (inactive)	> 30 µM (inactive)		> 30 µM (inactive)	> 30 µM (inactive)	> 30 µM (inactive)	> 30 µM (inactive)	> 30 µM (inactive)	> 30 µM (inactive)
CC(C)(O)CC(=O)NCCn1ccc2ncnc(Nc3ccc(Oc4cccc(C(F)(F)F)c4)c(Cl)c3)c21 [TAK-285]		> 30 µM (inactive)	> 30 µM (inactive)	> 30 µM (inactive)	> 30 µM (inactive)	> 30 µM (inactive)	> 30 µM (inactive)	> 30 µM (inactive)	> 30 µM (inactive)	> 30 µM (inactive)
CC1(C)CNc2cc(NC(=O)c3cccnc3NCc3ccncc3)ccc21 [MOTESANIB]		> 30 µM (inactive)							> 30 µM (inactive)	
C=CCN(/C=C1/C(=O)O[C@H](COC)[C@@]2(C)C1=C(O)C(=O)C1=C2[C@H](OC(C)=O)C[C@]2(C)C(=O)CC[C@@H]12)CC=C [SONOLISIB]	> 30 µM (inactive)	> 30 µM (inactive)	> 30 µM (inactive)	> 30 µM (inactive)	> 30 µM (inactive)	> 30 µM (inactive)	> 30 µM (inactive)	> 30 µM (inactive)	> 30 µM (inactive)	
C=CC(=O)Nc1cccc(Nc2nc(Nc3ccc(N4CCN(C(C)=O)CC4)cc3OC)ncc2C(F)(F)F)c1 [ROCILETINIB]	> 30 µM (inactive)		> 30 µM (inactive)	> 30 µM (inactive)	> 30 µM (inactive)	> 30 µM (inactive)	> 30 µM (inactive)	> 30 µM (inactive)	> 30 µM (inactive)	> 30 µM (inactive)
CCOc1ccn(-c2ccc(F)cc2)c(=O)c1C(=O)Nc1ccc(Oc2ccnc(N)c2Cl)c(F)c1 [BMS-777607]	> 30 µM (inactive)		> 30 µM (inactive)		> 30 µM (inactive)	> 30 µM (inactive)	> 30 µM (inactive)	> 30 µM (inactive)	> 30 µM (inactive)	
CN(C)C/C=C/C(=O)Nc1cc2c(Nc3ccc(F)c(Cl)c3)ncnc2cc1O[C@H]1CCOC1 [AFATINIB]		> 30 µM (inactive)							> 30 µM (inactive)	
NC(=O)c1ccc(N(C(N)=O)c2c(F)cccc2F)nc1-c1ccc(F)cc1F [VX-702]	> 30 µM (inactive)	> 30 µM (inactive)	> 30 µM (inactive)	> 30 µM (inactive)	> 30 µM (inactive)	> 30 µM (inactive)	> 30 µM (inactive)	> 30 µM (inactive)	> 30 µM (inactive)	
CCc1nc(C(N)=O)c(Nc2ccc(N3CCC(N4CCN(C)CC4)CC3)c(OC)c2)nc1NC1CCOCC1 [GILTERITINIB]	> 30 µM (inactive)	> 30 µM (inactive)	> 30 µM (inactive)	0.169 µM (active)	> 30 µM (inactive)	> 30 µM (inactive)	> 30 µM (inactive)	> 30 µM (inactive)	> 30 µM (inactive)	
Cn1cnc2c(F)c(Nc3ccc(Br)cc3Cl)c(C(=O)NOCCO)cc21 [SELUMETINIB]		> 30 µM (inactive)							> 30 µM (inactive)	
COc1cc2c(N3CCN(C(=O)Nc4ccc(OC(C)C)cc4)CC3)ncnc2cc1OCCCN1CCCCC1 [TANDUTINIB]		> 30 µM (inactive)							0.01 µM	
O=S(=O)(c1cccc2cnccc12)N1CCCNCC1 [FASUDIL]	6.42 µM (active)	> 30 µM (inactive)	> 30 µM (inactive)	> 30 µM (inactive)		> 30 µM (inactive)		> 30 µM (inactive)	> 30 µM (inactive)	> 30 µM (inactive)
CC1(COc2ccc3c(c2)ncn3-c2ccc3cccc(N4CCC(N)CC4)c3n2)COC1 [CRENOLANIB]	> 30 µM (inactive)	1.33 µM	> 30 µM (inactive)	0.766 µM (active)		> 30 µM (inactive)	> 30 µM (inactive)	> 30 µM (inactive)	> 30 µM (inactive)	> 30 µM (inactive)
C[C@@]1(C(=O)Nc2ccc(F)nc2)CCCN1c1nc(Nc2cc(C3CC3)n[nH]2)c2cccn2n1 [BMS-754807]		> 30 µM (inactive)							> 30 µM (inactive)	
CC(C)CC(=O)Nc1[nH]nc2c1CN(C(=O)C1CCN(C)CC1)C2(C)C [PHA-793887]	0.103 µM (active)	> 30 µM (inactive)		> 30 µM (inactive)	> 30 µM (inactive)	> 30 µM (inactive)	> 30 µM (inactive)	> 30 µM (inactive)	> 30 µM (inactive)	> 30 µM (inactive)
C[C@]1(O)C[C@@H](c2nc(-c3ccc4ccc(-c5ccccc5)nc4c3)c3c(N)nccn32)C1 [LINSITINIB]						> 30 µM (inactive)		> 30 µM (inactive)	> 30 µM (inactive)	> 30 µM (inactive)
